# Test system: B16F10 (malignant melanoma cells)
# Assay: Effect of inhibiting melanin formation in melanocytes (Dooley method)
# Assay type: cell-based
# Conditions: Mus musculus, B16-F10, 72 h; mice-derived B16F10 cells; treated continuously for 3 days; melanin dissolved in 1 N NaOH, absorbance at 405 nm; read-out: Inhibition of melanin formation IC50
# Method: Each of the amide derivative compounds according to Examples was determined in terms of the effect of inhibiting melanin formation in melanocytes by using the Dooley method. As a cell line, a mice-derived B16F10 (malignant melanoma cells) available from Korean Cell Line Bank was used. In addition, DMEM (Cat No. 11195), FBS (Cat No. 16000-044) and antibiotic-antifungal agent (Cat No. 15240-062) required for culturing cells were purchased from Invitrogen (GIBCO). The cell line was cultured at 37° C. under 5% CO2. The cultured B16F10 cells were stripped off with 0.05% trypsin-EDTA, the same number of cells (1×10^4 cells/well) was inoculated into a 48-well plate, and then the medium was exchanged with a medium containing 10 ppm of each Example continuously for 3 days from the next day. As a positive control, kojic acid and 5-adamantan-1-yl-N-(2,4-dihydroxybenzyl)-2,4-dimethoxybenzamide were used. After the fifth day, the cells were treated with 1 N NaOH to carry out reaction at 60° C. for 2 hours so that melanin contained in the cells might be dissolved, and then the amount of melanin was measured by determining the absorbance at 405 nm. Then, the concentration (IC50) of each Example required for reducing melanin formation by half in melanocytes was calculated.
row,Structure (SMILES),IC50
1,"COc1cc(OC)c(C23CC4CC(CC(C4)C2)C3)cc1C(=O)NCc1ccc(O)cc1O [5-adamantan-1-yl-N-(2,4-dihydroxybenzyl)-2,4-dimethoxybenzamide, reference compound]",1100 nM
2,"O=C(NCc1cc(O)cc(O)c1)C12CC3CC(CC(C3)C1)C2 [Example 3, Adamantane-1-Carboxylic Acid 3,5-Dihydroxybenzylamide]",20600 nM
3,"O=C(NCc1ccc(O)cc1)C12CC3CC(CC(C3)C1)C2 [Example 5, Adamantane-1-Carboxylic Acid 4-Hydroxybenzylamide]",11100 nM
4,"O=C(NCc1cccc(O)c1)C12CC3CC(CC(C3)C1)C2 [Example 6, Adamantane-1-Carboxylic Acid 3-Hydroxybenzylamide]",480 nM
5,"O=C(NCc1ccccc1O)C12CC3CC(CC(C3)C1)C2 [Example 7, Adamantane-1-Carboxylic Acid 2-Hydroxybenzylamide]",2360 nM
6,"O=c1cc(CO)occ1O [Kojic acid, reference compound]",500000 nM

# The next lines start with the values.
row,IC50,Structure (SMILES)
1,15000 nM,"O=C(NCc1ccc(O)cc1O)C12CC3CC(CC(C3)C1)C2 [Example 1, Adamantane-1-Carboxylic Acid 2,4-Dihydroxybenzylamide]"
2,20 nM,"O=C(NCc1ccc(O)c(O)c1)C12CC3CC(CC(C3)C1)C2 [Example 2, Adamantane-1-Carboxylic Acid 3,4-Dihydroxybenzylamide]"
3,1430 nM,"O=C(NCc1cc(O)ccc1O)C12CC3CC(CC(C3)C1)C2 [Example 4, Adamantane-1-Carboxylic Acid 2,5-Dihydroxybenzylamide]"

# — US12017974B2, “Adamantanecarboxylic acid benzyl amide derivative compound and skin whitening composition comprising same” (AMOREPACIFIC CORPORATION, priority 2019, dated 2024)
